Values belong to the compound of their own block, whether it stands above or below them.
Legend:
A375 cells [1] = conditions: A375, 24 h, compared to untreated control
A375 cells [2] = experiment: MTT cell viability assay, A375; type: cell-based; conditions: 72 h; for IC50: Homo sapiens, A-375, A375, MTT
Protocol: (§1) A375, MRC-5, and HaCaT cell lines were obtained from the American Type Culture Collection (ATCC). 518A2 cell line was kindly provided by Dr. […]ć. All cell lines were cultured in RPMI 1640 medium supplemented with 2 g/L glucose, 10% fetal bovine serum (FBS), and antibiotics. […] Cell viability was assessed using the MTT assay (Sigma Aldrich, #M5655). […] After 72 h of incubation, absorbance was measured at 570 nm using a Multiskan SkyHigh microplate reader (Thermo Fisher Scientific, Helsinki, Finland). Values were corrected by subtracting the absorbance measured in wells containing cell-free medium with tested compounds.

518A2 cells = experiment: MTT cell viability assay, 518A2; type: cell-based; conditions: Homo sapiens; 518A2, MTT, 72 h
Protocol: as §1

[3] = system: MRC-5 (fetal fibroblasts); experiment: MTT cell viability assay, MRC-5; type: cell-based; conditions: Homo sapiens, MRC5; MRC-5, MTT, 72 h
Protocol: as §1

A375R cells [4] = experiment: Cell cycle distribution (PI, flow cytometry), A375R; type: cell-based; conditions: 25 µM, 72 h
Protocol: (§2) A375 and A375R cells were seeded in 6-well plates at a density of 150,000 cells per well. On the following day, the cells were treated with 25 µM concentrations of compounds 1, 3, and 8, as well as telmisartan. After 72 h of incubation, the cells were harvested using trypsin, washed with phosphate-buffered saline (PBS), fixed in ethanol, and stored at −20 °C until analysis. Ethanol-fixed cells were treated with RNase A (1 mg/mL) and stained with propidium iodide (PI; 400 µg/mL). A total of 20,000 events were recorded per sample. Quantitative analysis of the cell cycle phase distribution was performed by flow cytometry using a FACSCalibur flow cytometer (Becton Dickinson, San Jose, CA, USA) and BD CellQuest Pro Version 5.2.1 software. Experiment was performed three times. Cells under treatment were compared to controls for each cell phase separately with one-way ANOVA and Dunnett’s multiple comparison tests. p < 0.05 was considered statistically significant.

[5] = system: HaCaT (human keratinocytes); experiment: MTT cell viability assay, HaCaT; type: cell-based; conditions: 72 h
Protocol: as §1

[6] = design: method as in PMID 11014323; conditions: males, oral intake of 320 mg; cited from earlier work
A375R cells [7] = experiment: MTT cell viability assay, vemurafenib-resistant A375R; type: cell-based; conditions: for IC50: A375R, MTT, 72 h
Protocol: as §1

AT1R = biological target: T1, AT1R (Homo sapiens, UniProt P30556); experiment: Angiotensin II-induced Ca2+ release, Fluo-4 AM live-cell imaging; type: cell-based; conditions: 2 min; for Effect on AngII-induced Ca2+ increase (combination treatment): A375, 25 μM compound + 1 μM AngII
T1 construct: endogenous in cells; host or cells: A375 melanoma cells (ATCC)
T1 sequence (P30556 1-359): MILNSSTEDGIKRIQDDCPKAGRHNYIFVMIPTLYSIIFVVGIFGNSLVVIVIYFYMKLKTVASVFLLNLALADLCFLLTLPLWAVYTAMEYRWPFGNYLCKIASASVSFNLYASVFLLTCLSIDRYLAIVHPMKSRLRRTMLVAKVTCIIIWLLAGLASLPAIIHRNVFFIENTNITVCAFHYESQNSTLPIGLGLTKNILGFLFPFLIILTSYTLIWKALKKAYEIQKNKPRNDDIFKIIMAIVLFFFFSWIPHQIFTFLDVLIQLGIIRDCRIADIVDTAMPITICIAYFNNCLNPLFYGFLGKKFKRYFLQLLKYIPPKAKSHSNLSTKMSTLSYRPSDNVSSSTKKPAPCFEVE
Protocol: Fluo-4 AM calcium indicator dye (F14201, Molecular Probes, Eugene, OR, USA) was used to observe Ca^2+ dynamics upon treatment, per manufacturer’s instructions. Briefly, 5000 A375 cells/well were seeded in 96-well optical bottom black cell culture plates (165305, Thermo Scientific). Fluo-4 AM stock solution in DMSO was mixed with equal volume of 20% Pluronic F-127 to assist in dispersion of AM esters before dilution into the loading medium. Twenty-four hours after seeding medium was removed, and cells were washed with HBBS without calcium and magnesium. Cells were stained in HBSS medium with 1.25 μM Fluo-4-AM for 30 min at 37 °C. After incubation, cells were washed and incubated in complete medium (10%FBS RPMI) to allow de-esterification for 30 min and then treated with 1 μM human Angiotensin II (A9525, Sigma Aldrich), 50 μM telmisartan, compounds 1, 3, and 8, or the combinations. Images were taken before addition of the treatment (0 min) and after 2 min of treatment on Zeiss PALM MicroBeam Axio Observer Z1 microscope (Carl Zeiss MicroImaging GmbH, Oberkochen, Germany) with Zeiss LD Plan-Neofluar 20×/0.4 Korr, ∞/0–1.5 mm lens and AxioVision SE64 Rel.4.9.1 software. Experiment was repeated three times. Integrated density of Fluo-4 fluorescence at 2 min of exposure to treatment was calculated with Image J, and normalized to the baseline fluorescence at time 0, in at least two random fields for each condition. Conditions were compared with one-way ANOVA and Tukey’s multiple comparisons test. p < 0.05 was considered statistically significant.

A375 cells [8] = experiment: Cellular uptake and subcellular distribution by LC-MS/MS; type: cell-based; conditions: A375, 25 μM, 24 h; for Compound accumulation normalized to telmisartan, Chromatin Bound: chromatin-bound nuclear fraction; for Compound accumulation normalized to telmisartan, Cytoplasm: cytoplasmic fraction; for Compound accumulation normalized to telmisartan, Cytoskeleton: cytoskeletal fraction; for Compound cell accumulation normalized to telmisartan, Whole Lysate: μmol compound per μg cell protein normalized to telmisartan
Protocol: Cells were then trypsinized, washed with PBS and pelleted. For whole cell lysates, cell pellet was dissolved in RIPA buffer on ice. Fractions and whole cell lysates were stored at -80 °C until use. Protein concentration of lysates was determined with Pierce BCA Protein assay kit (Thermo Fisher #23225), and cell accumulation was calculated as μmol of compound per μg of cell protein and normalized to telmisartan. Concentrations of telmisartan and its derivatives were determined using liquid chromatography-tandem mass spectrometry (LC-MS/MS) method in positive HESI mode. The analysis was performed on UHPLC chromatograph […] (Thermo Fisher Scientific Inc., Madison, WI, USA), coupled to a triple quadrupole mass spectrometer TSQ Quantum Access MAX (Thermo Fisher Scientific Inc., Madison, WI, USA) with heated electrospray ionization (HESI) interface. The column was Zorbax Extend C18 (150 mm × 4.6 mm, 5 μm particle size). […] Experiment was repeated twice.

A375 cells [9] = experiment: Mitochondrial morphology staining (MitoTracker Green FM); type: cell-based; conditions: A375, 25 μM, 24 h
Protocol: For imaging of the mitochondrial morphology in live cells, A375 cells seeded in 96-well optical bottom plates, as above, were treated for 24 h with 25 μM telmisartan, compound 1, 3, or 8. Treatment was washed away, and cells were stained with 500 nM MitoTracker Green FM (#9074, Cell signaling Technology, Danvers, MA, USA) in RPMI without serum for 30 min at 37 °C. Cells were imaged on Zeiss PALM MicroBeam Axio Observer Z1 microscope (Carl Zeiss MicroImaging GmbH, Oberkochen, Germany) with Zeiss LD Plan-Neofluar 20×/0.4 Korr, ∞/0–1.5 mm lens and AxioVision software. Mitochondrial shape was quantified in images from two biological experimental repeats, in three random fields for each condition, using Image J Analyze Particles function. Images were first processed to 8-bit binary, and circularity and aspect ratio (major axis/minor axis) were calculated and plotted with Prism 9 (GraphPad Software, LLC, Boston, MA, USA). Treatments were compared with untreated control using one-way ANOVA and Dunnett’s multiple comparisons test. p < 0.05 was considered statistically significant.

A375 cells [10] = experiment: Cell cycle distribution (PI, flow cytometry), A375; type: cell-based; conditions: A375, 25 µM, 72 h
Protocol: as §2

SMILES: N#CC(C#N)=NNc1ccc(OC(F)(F)F)cc1 [FCCP, carbonyl cyanide 4-(trifluoromethoxy) phenylhydrazone]
- Ratio of red JC-1 aggregates to green JC-1 monomers (A375 cells [1]): lowest red/green ratio

- IC50 (A375 cells [2]): 116 ± 6.94 µM
SMILES: CCCc1nc2c(C)cc(-c3nc4ccccc4n3C)cc2n1Cc1ccc(-c2ccccc2C(=O)NCCCC(=O)O)cc1 [compound 6, 4-{[4′-(1,7′-dimethyl-2′-propyl-1H-[2,5′]bibenzoimidazolyl-3′-ylmethyl)-biphenyl-2-carbonyl]-amino}-butyric acid]
- IC50 (518A2 cells): 89.2 ± 7.37 µM

- IC50 (A375 cells [2]): 86.22 ± 0.64 µM
SMILES: CCCc1nc2c(C)cc(-c3nc4ccccc4n3C)cc2n1Cc1ccc(-c2ccccc2C(=O)NCC(=O)O)cc1 [compound 5, {[4′-(1,7′-dimethyl-2′-propyl-1H-[2,5′]bibenzoimidazolyl-3′-ylmethyl)-biphenyl-2-carbonyl]-amino}-acetic acid]
- IC50 (518A2 cells): 81.5 ± 6.28 µM

- IC50 (A375 cells [2]): > 150 µM
SMILES: CCCc1nc2c(C)cc(-c3nc4ccccc4n3C)cc2n1Cc1ccc(-c2ccccc2C(=O)NC(Cc2cnc[nH]2)C(=O)O)cc1 (stereo not drawn) [compound 2, 2-{[4′-(1,7′-dimethyl-2′-propyl-1H-[2,5′]bibenzoimidazolyl-3′-ylmethyl)-biphenyl-2-carbonyl]-amino}-3-(3H-imidazol-4-yl)-propionic acid]
- IC50 (518A2 cells): > 150 µM

- IC50 (A375 cells [2]): 59.1 ± 4.17 µM
- IC50 (A375R cells [7]): 29.2 ± 3.88 µM
- Effect on AngII-induced Ca2+ increase (combination treatment) (AT1R): prevented AngII-induced Ca^2+ increase
- Compound accumulation normalized to telmisartan, Chromatin Bound (A375 cells [8]): 1.00
- Compound accumulation normalized to telmisartan, Cytoplasm (A375 cells [8]): 1.00
- Compound accumulation normalized to telmisartan, Cytoskeleton (A375 cells [8]): 1.00
- Accumulation in the membrane fraction (A375 cells [8]; membrane fraction): 0.197 µmol/L
- Compound accumulation normalized to telmisartan, Membrane (A375 cells [8]; membrane fraction): 1.00
- Compound cell accumulation normalized to telmisartan, Whole Lysate (A375 cells [8]): 1.00
SMILES: CCCc1nc2c(C)cc(-c3nc4ccccc4n3C)cc2n1Cc1ccc(-c2ccccc2C(=O)O)cc1 [Telmisartan, reference compound]
- IC50 [3]: 70.4 ± 5.61 µM
- Cell cycle distribution (A375R cells [4]): cell cycle profile comparable to that of the untreated control cells
- IC50 [5]: 148 ± 2.89 µM
- Maximum steady-state plasma level [6]: around 20 μM
- Selectivity (A375R cells [7]; A375R versus normal cell lines (HaCaT, MRC-5), from IC50 values): > 2.40
- IC50 (518A2 cells): 70.2 ± 3.83 µM

- IC50 (A375 cells [2]): 27.2 ± 0.63 µM
- IC50 (A375R cells [7]): 19.7 ± 8.87 µM
- Compound accumulation normalized to telmisartan, Chromatin Bound (A375 cells [8]): 36.22
- Compound accumulation normalized to telmisartan, Cytoplasm (A375 cells [8]): 17.80
- Compound accumulation normalized to telmisartan, Cytoskeleton (A375 cells [8]): 21.14
- Compound accumulation normalized to telmisartan, Membrane (A375 cells [8]; membrane fraction): 106.59
- Compound cell accumulation normalized to telmisartan, Whole Lysate (A375 cells [8]): 12.08
SMILES: CCCc1nc2c(C)cc(-c3nc4ccccc4n3C)cc2n1Cc1ccc(-c2ccccc2C(=O)NC(Cc2cn(C)c3ccccc23)C(=O)O)cc1 (stereo not drawn) [compound 1, 2-{[4′-(1,7′-dimethyl-2′-propyl-1H-[2,5′]bibenzoimidazolyl-3′-ylmethyl)-biphenyl-2-carbonyl]-amino}-3-(1-methyl-1H-indol-3-yl)-propionic acid]
- IC50 [3]: 26.7 ± 2.48 µM
- Mitochondrial network morphology (A375 cells [9]): dramatic fission and clumping of mitochondria
- Effect on cell viability at single concentration (A375 cells [2]; A375, 25 μM, MTT): significant reductions in cell viability
- Cell cycle distribution (A375R cells [4]): cell accumulation in the G0/G1 phase
- IC50 [5]: 43.9 ± 3.42 µM
- IC50 (518A2 cells): 23.5 ± 2.08 µM
- Effect on AngII-induced Ca2+ increase (combination treatment) (AT1R): did not prevent AngII-induced Ca^2+ increase
- Effect of compound alone on baseline Ca2+ signaling (AT1R; A375, compound alone): no significant changes in the baseline Ca^2+ signaling
- Cell cycle distribution (A375 cells [10]): increased accumulation of cells in the subG1 phase, albeit not statistically significant

- IC50 (A375 cells [2]): 43.2 ± 3.55 µM
SMILES: CCCc1nc2c(C)cc(-c3nc4ccccc4n3C)cc2n1Cc1ccc(-c2ccccc2C(=O)NC(CC(C)C)C(=O)O)cc1 (stereo not drawn) [compound 7, 2-{[4′-(1,7′-dimethyl-2′-propyl-1H-[2,5′]bibenzoimidazolyl-3′-ylmethyl)-biphenyl-2-carbonyl]-amino}-4-methyl-pentanoic acid]
- IC50 (518A2 cells): 39.7 ± 2.4 µM

- IC50 (A375 cells [2]): 43 ± 6.02 µM
SMILES: CCCc1nc2c(C)cc(-c3nc4ccccc4n3C)cc2n1Cc1ccc(-c2ccccc2C(=O)NC(C(=O)O)C(C)CC)cc1 (stereo not drawn) [compound 4, 2-{[4′-(1,7′-dimethyl-2′-propyl-1H-[2,5′]bibenzoimidazolyl-3′-ylmethyl)-biphenyl-2-carbonyl]-amino}-3-methyl-pentanoic acid]
- IC50 (518A2 cells): 49 ± 3.17 µM

Source: publication PMC12787000 (Molecules, 2025)
